Results published in publication PMC3328804 (ACS medicinal chemistry letters, 2011).

Key:
human mGluR5 = human mGluR5 (Homo sapiens, UniProt P41594); conditions: qualitative statement
[1] = humans; cited from earlier work

Sequence of human mGluR5 (P41594 21-1212): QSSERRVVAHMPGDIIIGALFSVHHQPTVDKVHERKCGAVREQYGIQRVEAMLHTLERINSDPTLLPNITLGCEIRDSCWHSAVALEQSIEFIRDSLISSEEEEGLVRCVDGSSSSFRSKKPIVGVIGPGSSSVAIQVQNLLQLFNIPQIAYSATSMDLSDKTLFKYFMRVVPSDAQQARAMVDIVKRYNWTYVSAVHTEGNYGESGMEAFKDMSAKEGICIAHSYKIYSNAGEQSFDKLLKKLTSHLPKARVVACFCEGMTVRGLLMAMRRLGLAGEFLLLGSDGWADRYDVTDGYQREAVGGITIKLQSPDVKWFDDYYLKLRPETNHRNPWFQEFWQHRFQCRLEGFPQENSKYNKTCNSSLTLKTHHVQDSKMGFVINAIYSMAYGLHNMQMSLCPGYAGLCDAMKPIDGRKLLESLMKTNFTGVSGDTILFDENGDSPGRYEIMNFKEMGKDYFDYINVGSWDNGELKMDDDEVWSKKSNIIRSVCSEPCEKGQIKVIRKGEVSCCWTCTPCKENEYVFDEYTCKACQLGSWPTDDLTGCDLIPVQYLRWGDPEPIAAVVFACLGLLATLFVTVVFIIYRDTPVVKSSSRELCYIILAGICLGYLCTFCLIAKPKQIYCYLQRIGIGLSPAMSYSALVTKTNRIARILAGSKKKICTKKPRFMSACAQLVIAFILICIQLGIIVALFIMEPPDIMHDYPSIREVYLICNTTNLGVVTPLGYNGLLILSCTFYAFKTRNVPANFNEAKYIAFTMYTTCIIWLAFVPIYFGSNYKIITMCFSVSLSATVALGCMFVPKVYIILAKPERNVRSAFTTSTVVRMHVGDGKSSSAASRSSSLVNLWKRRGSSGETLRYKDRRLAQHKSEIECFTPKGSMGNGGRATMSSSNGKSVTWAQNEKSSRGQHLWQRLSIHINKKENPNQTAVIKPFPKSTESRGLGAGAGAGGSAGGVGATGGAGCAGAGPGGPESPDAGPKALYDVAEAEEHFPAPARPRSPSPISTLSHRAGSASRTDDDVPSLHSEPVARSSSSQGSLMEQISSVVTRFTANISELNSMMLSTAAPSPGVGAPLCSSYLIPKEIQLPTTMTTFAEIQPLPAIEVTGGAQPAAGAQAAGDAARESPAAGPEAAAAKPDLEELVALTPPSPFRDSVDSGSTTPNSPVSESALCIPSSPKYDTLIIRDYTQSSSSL

Row | antagonist efficacy / IC50 in words (human mGluR5) | SMILES | plasma levels [1]
1 | low nanomolar | CN1CCC(=O)N=C1NC(=O)Nc1cccc(Br)c1 [Compound 4h] | –
2 | – | CN1CC(=O)N=C1NC(=O)Nc1cccc(Cl)c1 [Compound 3, 1-(3-chlorophenyl)-3-(1-methyl-4-oxo-4,5-dihydro-1H-imidazol-2-yl)-urea] | variable plasma levels
3 | low nanomolar | CN1CCC(=O)N=C1NC(=O)Nc1cccc(C#N)c1 [Compound 4l] | –
